We go through four molecules from BindingDB's records for doi:10.1002/cbic.201300187 (The Johns Hopkins University, 2013).

The target of this test is T1, 1-deoxy-D-xylulose-5-phosphate synthase (Escherichia coli (strain K12), UniProt P77488).
T1 sequence (P77488 whole entry): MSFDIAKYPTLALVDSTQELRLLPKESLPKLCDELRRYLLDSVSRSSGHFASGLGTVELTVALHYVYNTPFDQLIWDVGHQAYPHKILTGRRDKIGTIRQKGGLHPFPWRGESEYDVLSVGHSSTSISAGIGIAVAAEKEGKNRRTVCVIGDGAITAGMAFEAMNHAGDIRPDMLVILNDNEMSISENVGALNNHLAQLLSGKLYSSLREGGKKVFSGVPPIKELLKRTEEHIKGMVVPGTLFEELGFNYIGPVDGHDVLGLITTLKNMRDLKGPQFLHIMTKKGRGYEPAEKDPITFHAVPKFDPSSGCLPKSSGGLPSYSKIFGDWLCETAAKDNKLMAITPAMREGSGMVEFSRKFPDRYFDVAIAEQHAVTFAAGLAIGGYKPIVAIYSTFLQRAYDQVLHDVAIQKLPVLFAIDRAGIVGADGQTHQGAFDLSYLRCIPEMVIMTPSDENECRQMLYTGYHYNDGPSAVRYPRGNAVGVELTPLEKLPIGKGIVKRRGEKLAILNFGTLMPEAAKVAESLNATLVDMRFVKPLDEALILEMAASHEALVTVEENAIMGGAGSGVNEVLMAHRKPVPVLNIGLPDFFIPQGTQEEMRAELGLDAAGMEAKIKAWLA
Briefly: DXP Synthase Inhibition Assay. Conditions: pH 8; 37 °C. As for the experimental part:
Reaction mixtures containing HEPES (100mM, pH 8.0, 2mM MgCl2, 5mM NaCl), ThDP (1mM), BSA (1mg/mL), DMSO (10%, v/v), ᴅ-GAP (30µM), pyruvate (80µM), and various concentrations of nitroso inhibitor were preincubated at 37°C for 5 min. Enzyme reactions were initiated by addition of DXP synthase (0.1µM). Aliquots (150µL) of the enzymatic mixture were removed between 0.5 and 3 min and quenched in ice-cold methanol (150µL).
Molecule `COc1ccc2ccc(O)c(N=O)c2c1` [7‐methoxy‐1‐nitrosonaphthalen‐2‐ol (Substrate 8)] gave a half-inhibitory concentration (IC50) greater than 2000 µM.

Take `Cc1nn(C(C)C)c(C)c1N=O` [1‐isopropyl‐3,5‐dimethyl‐4‐nitrosopyrazole (Substrate 9)]: the IC50 was greater than 2000 µM.

The molecule `CN(C)c1ccc(N=O)cc1` [NDMA (Substrate 4)] gave an IC50 of 844 µM.

On to `O=Nc1ccccc1` [NOB], for which inhibition was half-maximal at 208 µM (IC50).
